Calls of active or inactive are those of the source. The rule behind the calls is not given here.
Columns and labels:
[1] = Antagonist activity against alpha6beta2* nAChR in Sprague-Dawley rat […] assessed as inhibition of nicotine-induced [3H]-dopamine release after 5 mins by microbeta counting
[2] = biological target: Neuronal acetylcholine receptor; alpha4/beta2 (Rattus norvegicus, UniProt P09483+P12390); assay: Agonist activity at alpha4beta2 nAChR in Sprague-Dawley rat striatal slices assessed as increase in [3H]-Dopamine release after 5 mins by microbeta counting; type: protein-complex assay
[3] = biological target: Neuronal acetylcholine receptor; alpha3/beta4 (Homo sapiens, UniProt P30926+P32297); assay: Displacement of [3H]-Epibatidine from human aplha3beta4 nAChR expressed in HEK293 cells pre-incubated for 5 mins followed by overnight incubation by radioligand liquid scintillation counter analysis; type: cell-based
[4] = Displacement of [3H]-Epibatidine from aplha6beta2* nAChR in Sprague-Dawley rat cortical membranes pre-incubated for 5 mins followed by overnight incubation by radioligand liquid scintillation counter analysis
[5] = biological target: Neuronal acetylcholine receptor subunit alpha-7 (Rattus norvegicus, UniProt Q05941); assay: Displacement of [125I]alpha-Bungarotoxin from alpha7 nAChR in Sprague-Dawley rat hippocampal membranes pre-incubated for 5 mins followed by overnight incubation by radioligand liquid scintillation counter analysis
Rattus norvegicus [6] = organism: Rattus norvegicus; assay: Selectivity ratio of Ki for alpha7 nAChR in Sprague-Dawley rat hippocampal membranes to Ki for alpha4beta2 nAChR in Sprague-Dawley rat cortical membranes
[7] = Displacement of [3H]-Epibatidine from alpha4beta2* nAChR in Sprague-Dawley rat cortical membranes pre-incubated for 5 mins followed by overnight incubation by radioligand liquid scintillation counter analysis
[8] = Binding affinity to alpha4beta2* nAChR in Sprague-Dawley rat cortical membranes after overnight incubation by radioligand liquid scintillation counter analysis
[9] = biological target: Neuronal acetylcholine receptor; alpha4/beta2 (Rattus norvegicus) (UniProt P09483+P12390); assay: Agonist activity at alpha4beta2 nAChR in Sprague-Dawley rat striatal slices assessed as increase in [3H]-dopamine release after 5 mins by microbeta counting relative to nicotine; type: protein-complex assay
Rattus norvegicus [10] = organism: Rattus norvegicus; assay: Agonist activity at aplha6beta2* nAChR in Sprague-Dawley rat striatal slices assessed as stinulation of [3H]-dopamine release in presence of 100 nM alpha-conotoxin MII after 5 mins by microbeta counting
HEK293 = assay: Selectivity ratio of Ki for aplha6beta2* nAChR in Sprague-Dawley rat cortical membranes to Ki for human aplha3beta4 nAChR expressed in HEK293 cells; type: cell-based

Chain of Neuronal acetylcholine receptor; alpha4/beta2 (P09483 whole entry): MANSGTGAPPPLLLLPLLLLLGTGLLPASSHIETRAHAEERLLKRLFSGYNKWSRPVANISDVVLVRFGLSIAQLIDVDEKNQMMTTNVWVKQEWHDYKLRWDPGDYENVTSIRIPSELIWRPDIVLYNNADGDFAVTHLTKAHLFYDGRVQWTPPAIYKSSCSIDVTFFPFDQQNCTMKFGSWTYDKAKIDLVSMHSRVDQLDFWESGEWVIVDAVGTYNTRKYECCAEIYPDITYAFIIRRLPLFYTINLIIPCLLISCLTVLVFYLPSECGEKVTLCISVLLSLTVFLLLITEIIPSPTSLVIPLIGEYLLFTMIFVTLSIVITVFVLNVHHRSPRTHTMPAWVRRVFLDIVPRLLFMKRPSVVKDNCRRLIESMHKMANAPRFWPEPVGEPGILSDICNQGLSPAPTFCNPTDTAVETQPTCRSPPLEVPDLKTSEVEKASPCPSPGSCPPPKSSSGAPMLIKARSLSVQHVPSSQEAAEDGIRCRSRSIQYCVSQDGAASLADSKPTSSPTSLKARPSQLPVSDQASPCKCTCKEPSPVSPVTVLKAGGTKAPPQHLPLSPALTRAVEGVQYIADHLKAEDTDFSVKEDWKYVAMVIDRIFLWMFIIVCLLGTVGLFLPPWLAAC
Chain of Neuronal acetylcholine receptor; alpha4/beta2 (P12390 whole entry): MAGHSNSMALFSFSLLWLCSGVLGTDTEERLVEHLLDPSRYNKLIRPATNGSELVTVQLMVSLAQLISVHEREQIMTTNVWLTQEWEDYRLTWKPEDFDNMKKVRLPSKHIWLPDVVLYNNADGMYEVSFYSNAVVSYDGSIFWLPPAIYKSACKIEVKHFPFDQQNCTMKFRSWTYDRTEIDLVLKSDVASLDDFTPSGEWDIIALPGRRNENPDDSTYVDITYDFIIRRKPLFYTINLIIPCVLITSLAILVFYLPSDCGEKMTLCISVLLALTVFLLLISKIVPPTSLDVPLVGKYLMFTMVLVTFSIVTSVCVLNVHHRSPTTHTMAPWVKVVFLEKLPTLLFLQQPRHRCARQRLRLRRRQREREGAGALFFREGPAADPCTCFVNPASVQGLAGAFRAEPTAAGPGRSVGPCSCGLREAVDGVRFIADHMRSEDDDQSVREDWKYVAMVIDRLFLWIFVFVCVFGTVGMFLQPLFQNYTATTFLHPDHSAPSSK
Chain of Neuronal acetylcholine receptor subunit alpha-7 (Q05941 whole entry): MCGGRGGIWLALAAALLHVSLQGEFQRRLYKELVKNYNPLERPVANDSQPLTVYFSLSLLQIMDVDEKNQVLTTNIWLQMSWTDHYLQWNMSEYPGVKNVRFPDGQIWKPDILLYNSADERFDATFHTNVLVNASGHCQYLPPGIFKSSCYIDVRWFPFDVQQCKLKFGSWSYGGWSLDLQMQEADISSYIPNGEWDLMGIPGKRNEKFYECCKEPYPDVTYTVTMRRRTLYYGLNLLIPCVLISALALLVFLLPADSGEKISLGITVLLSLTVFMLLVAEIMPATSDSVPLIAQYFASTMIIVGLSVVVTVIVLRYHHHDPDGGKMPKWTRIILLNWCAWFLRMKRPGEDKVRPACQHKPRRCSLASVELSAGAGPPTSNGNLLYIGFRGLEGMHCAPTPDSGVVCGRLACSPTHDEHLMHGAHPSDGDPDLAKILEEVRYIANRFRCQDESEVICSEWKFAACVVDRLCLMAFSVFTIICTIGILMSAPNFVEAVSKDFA
Chain of Neuronal acetylcholine receptor; alpha3/beta4 (P30926 whole entry): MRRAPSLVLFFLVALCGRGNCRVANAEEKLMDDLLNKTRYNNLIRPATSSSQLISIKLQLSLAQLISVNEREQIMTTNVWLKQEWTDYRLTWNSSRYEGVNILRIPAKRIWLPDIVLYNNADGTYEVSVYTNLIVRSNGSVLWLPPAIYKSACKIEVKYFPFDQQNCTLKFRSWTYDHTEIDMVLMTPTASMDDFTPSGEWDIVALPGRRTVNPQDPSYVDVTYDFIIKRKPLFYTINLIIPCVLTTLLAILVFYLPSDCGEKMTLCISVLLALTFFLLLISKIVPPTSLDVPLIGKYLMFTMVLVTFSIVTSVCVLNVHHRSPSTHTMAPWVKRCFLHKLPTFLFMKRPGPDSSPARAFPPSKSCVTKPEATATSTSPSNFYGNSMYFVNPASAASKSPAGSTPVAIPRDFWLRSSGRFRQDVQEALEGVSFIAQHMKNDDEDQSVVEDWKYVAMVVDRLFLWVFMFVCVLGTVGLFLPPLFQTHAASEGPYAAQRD
Chain of Neuronal acetylcholine receptor; alpha3/beta4 (P32297 whole entry): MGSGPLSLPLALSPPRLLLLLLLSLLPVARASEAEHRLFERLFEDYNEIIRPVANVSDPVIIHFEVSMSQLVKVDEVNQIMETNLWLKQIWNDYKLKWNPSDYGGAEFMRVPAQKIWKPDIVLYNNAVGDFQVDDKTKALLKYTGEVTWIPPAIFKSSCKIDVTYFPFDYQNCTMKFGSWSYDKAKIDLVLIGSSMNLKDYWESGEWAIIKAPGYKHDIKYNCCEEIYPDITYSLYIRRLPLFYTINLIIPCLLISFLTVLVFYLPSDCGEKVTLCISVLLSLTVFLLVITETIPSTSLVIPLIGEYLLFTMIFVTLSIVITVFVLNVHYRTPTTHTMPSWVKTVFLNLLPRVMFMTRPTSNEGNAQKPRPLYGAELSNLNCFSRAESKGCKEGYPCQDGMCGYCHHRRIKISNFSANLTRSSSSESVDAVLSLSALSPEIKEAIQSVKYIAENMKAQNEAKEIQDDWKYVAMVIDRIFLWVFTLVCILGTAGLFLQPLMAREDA

| Compound | Ki [5] | Ratio Ki (Rattus norvegicus [6]) | Ki [7] | also measured |
| --- | --- | --- | --- | --- |
| Fc1ccc(-c2cncc(N3CC4CC(C3)N4)c2)cc1 | 110 µM | 4.44e+06 | 0.0248 nM | IC50 [1]: 0.7 nM; EC50 [2]: Not Active; Ki [3]: 1.6 nM; Ki [4]: 0.032 nM |
| Clc1ccc(Cl)c(-c2cncc(N3CC4CC(C3)N4)c2)c1 | 6 µM | 90000 | 0.0667 nM |  |
| O=[N+]([O-])c1ccc(-c2cncc(N3CC4CC(C3)N4)c2)cc1 | 5 µM | 478000 | 0.0105 nM |  |
| Clc1ccc(-c2cncc(N3CC4CC(C3)N4)c2)c(Cl)c1 | 13 µM |  | 0.0821 nM |  |
| Brc1cncc(N2CC3CC(C2)N3)c1 | 0.176 µM | 30800 | 0.00572 nM |  |
| Brc1ccc(-c2cncc(N3CC4CC(C3)N4)c2)cc1 | 34 µM | 226000 | 0.151 nM |  |
| Cc1ccc(-c2cncc(N3CC4CC(C3)N4)c2)cc1 | 96 µM | 6.69e+06 | 0.0143 nM |  |
| Clc1ccc([C@@H]2C[C@H]3CC[C@@H]2N3)cn1 [(+)-EPIBATIDINE] |  |  |  | Ki [8]: 0.043 nM |
| Clc1cncc(N2CC3CC(C2)N3)c1 | 0.073 µM | 11600 | 0.00632 nM | EC50 ([2]; read-out: EC50): 1.4 nM; Efficacy [9]: 111%; Ki [3]: 2.6 nM; Ki [4]: 0.0112 nM; Activity (Rattus norvegicus [10]): inactive; Ratio Ki (HEK293): 411 |
| Clc1ccc(-c2cncc(N3CC4CC(C3)N4)c2)cc1Cl | 36 µM | 397000 | 0.0908 nM |  |
| c1ccc(-c2cncc(N3CC4CC(C3)N4)c2)cc1 | 17 µM | 1.52e+06 | 0.0112 nM | IC50 [1]: 5.87 nM; EC50 [2]: Not Active; Ki [3]: 6.1 nM; Ki [4]: 0.0112 nM; Ratio Ki (HEK293): 521 |
| COc1ccc(-c2cncc(N3CC4CC(C3)N4)c2)cc1 | 6.5 µM | 537000 | 0.0121 nM |  |
| Clc1ccc(-c2cncc(N3CC4CC(C3)N4)c2)cc1 | 48 µM | 1.46e+06 | 0.0328 nM |  |
| Clc1ccc(N2CC3CC(C2)N3)cn1 |  |  |  | EC50 ([2]; read-out: EC50): 1.16 nM; Efficacy [9]: 120%; Ki [3]: 0.2 nM; Ki [4]: 0.0048 nM; Activity (Rattus norvegicus [10]): inactive |

From ChEMBL document CHEMBL3627604, “Design of novel 3,6-diazabicyclo[3.1.1]heptane derivatives with potent and selective affinities for α4β2 neuronal nicotinic acetylcholine receptors” (Eur J Med Chem, 2015)
